According to ChEMBL document CHEMBL1201862, “PubChem BioAssay data set” (2004):
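Five compound concentrations were applied to cells in 96-well plates for 48 hours; endpoints were derived by simple linear interpolation of the resulting dose-response curve. GI50: concentration for 50% inhibition of growth.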 Active and inactive are the calls of the source. No stated cut-off is given here; in the data, active = GI50 up to about 1.1 µM and inactive = higher.

Columns and labels:
Test in all cases: NCI tumour cell line growth inhibition, 48 h
SK-MEL-28 = test system: SK-MEL-28
U-251 = test system: U-251
KM12 = test system: KM12
NCI-H23 = test system: NCI-H23
NCI/ADR-RES = test system: NCI/ADR-RES
SNB-75 = test system: SNB-75
MDA-MB-231 = test system: MDA-MB-231
SF-268 = test system: SF-268
SR = test system: SR
MDA-MB-435 = test system: MDA-MB-435
CAKI-1 = test system: CAKI-1
OVCAR-3 = test system: OVCAR-3
Hs-578T = test system: Hs-578T
M14 = test system: M14
NCI-H522 = test system: NCI-H522
HOP-62 = test system: HOP-62
BT-549 = test system: BT-549
ACHN = test system: ACHN
MDA-N = test system: MDA-N

SMILES | GI50 (SK-MEL-28) | GI50 (U-251) | GI50 (KM12) | GI50 (NCI-H23) | GI50 (NCI/ADR-RES) | GI50 (SNB-75) | GI50 (MDA-MB-231) | GI50 (SF-268) | GI50 (SR) | GI50 (MDA-MB-435) | GI50 (CAKI-1) | GI50 (OVCAR-3) | GI50 (Hs-578T) | GI50 (M14) | GI50 (NCI-H522) | GI50 (HOP-62) | GI50 (BT-549) | GI50 (ACHN) | GI50 (MDA-N)
CCCCI(O)OS(=O)(=O)c1ccc(C)cc1 | > 100 µM (inactive) | > 100 µM (inactive) | 56.8 µM (inactive) | > 100 µM (inactive) | 29.6 µM (inactive) | 73.5 µM (inactive) | > 100 µM (inactive) | > 100 µM (inactive) | 55.3 µM (inactive) | > 100 µM (inactive) | > 100 µM (inactive) | > 100 µM (inactive) | > 100 µM (inactive) | > 100 µM (inactive) | 22.5 µM (inactive) | > 100 µM (inactive) | > 100 µM (inactive) | > 100 µM (inactive) | 
C/C(=N\O)c1ccc2ccc3ccccc3c2c1 | 44.2 µM (inactive) | 29.8 µM (inactive) | 21.5 µM (inactive) | 65.3 µM (inactive) | 31.3 µM (inactive) | 25.5 µM (inactive) | 28.1 µM (inactive) | 44.9 µM (inactive) | 21.8 µM (inactive) | 22.2 µM (inactive) | 51.9 µM (inactive) | 34.2 µM (inactive) | 27.6 µM (inactive) | 66.5 µM (inactive) | 29.9 µM (inactive) | > 100 µM (inactive) |  | 32.8 µM (inactive) | 
C=C1CC(c2ccc(OCCCN3C(=O)c4ccccc4C3=O)c(OC)c2)OC1=O (stereo unspecified) | 2.21 µM (inactive) | 7.98 µM (inactive) | 10.8 µM (inactive) | 4.82 µM (inactive) | 17.9 µM (inactive) | 0.382 µM (active) | 9.25 µM (inactive) | 8.09 µM (inactive) | 0.973 µM (active) | 2.04 µM (inactive) | 3.66 µM (inactive) | 2.21 µM (inactive) | 6.17 µM (inactive) | 4.3 µM (inactive) | 0.514 µM (active) | 15.6 µM (inactive) |  | 6.25 µM (inactive) | 3.44 µM (inactive)
BrC(=C(c1ccc(OC2CCCCO2)cc1)c1ccc(OC2CCCCO2)cc1)c1ccccc1 (stereo unspecified) | > 100 µM (inactive) | > 100 µM (inactive) | > 100 µM (inactive) | > 100 µM (inactive) | > 100 µM (inactive) | > 100 µM (inactive) | > 100 µM (inactive) | > 100 µM (inactive) | > 100 µM (inactive) | > 100 µM (inactive) | > 100 µM (inactive) | > 100 µM (inactive) | > 100 µM (inactive) | > 100 µM (inactive) |  | > 100 µM (inactive) |  |  | > 100 µM (inactive)
S=c1sc2ccccc2n1CN1CCN(Cc2ccccc2)CC1 |  | > 100 µM (inactive) | > 100 µM (inactive) | > 100 µM (inactive) | > 100 µM (inactive) | > 100 µM (inactive) |  | > 100 µM (inactive) |  | > 100 µM (inactive) | > 100 µM (inactive) | > 100 µM (inactive) | > 100 µM (inactive) | > 100 µM (inactive) | > 100 µM (inactive) | > 100 µM (inactive) | > 100 µM (inactive) | > 100 µM (inactive) | 
CC1(C)C2CC(c3ccncc3)ON2C(C)(C)N1O (stereo unspecified) | > 100 µM (inactive) | > 100 µM (inactive) | > 100 µM (inactive) | > 100 µM (inactive) | > 100 µM (inactive) | > 100 µM (inactive) | > 100 µM (inactive) | > 100 µM (inactive) | > 100 µM (inactive) | > 100 µM (inactive) | > 100 µM (inactive) | > 100 µM (inactive) | > 100 µM (inactive) | > 100 µM (inactive) |  | > 100 µM (inactive) |  | > 100 µM (inactive) | > 100 µM (inactive)
